Experiment [1] addresses His-tagged KRAS G12D protein (Homo sapiens, UniProt P01116, G12D). In words: KRAS G12D TR-FRET Assay.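 Note: europium anti-His antibody paired with streptavidin-d2 as FRET partners, initial 30 min incubation, then peptide 1 h and detection reagents 1 h, all at room temperature.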 The note with it: biotinylated KRPep-2d substrate, 10 μM GDP. It counts as binding.
The target in experiment [2] is GDP-bound KRAS protein (aa 1-169), containing both G12D and C118A amino acid substitutions (Homo sapiens, UniProt P01116, C118A/G12D). In words: KRAS G12D Coupled Nucleotide Exchange Assay.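 Note: IC50 obtained by fitting the AlphaScreen signal with a four-parameter logistic curve.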 It counts as biochemical. The conditions noted are these: 2 h compound pre-incubation; SOS-mediated nucleotide exchange, cRAF AlphaScreen readout.
Chain of GDP-bound KRAS protein (aa 1-169), containing both G12D and C118A amino acid substitutions (P01116 1-169 isoform P01116-2 G12D/C118A): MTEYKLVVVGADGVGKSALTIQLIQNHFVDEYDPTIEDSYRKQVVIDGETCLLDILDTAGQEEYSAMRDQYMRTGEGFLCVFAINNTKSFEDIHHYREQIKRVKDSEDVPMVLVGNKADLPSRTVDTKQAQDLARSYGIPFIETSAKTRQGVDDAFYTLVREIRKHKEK

Chain of His-tagged KRAS G12D protein (P01116 1-188 isoform P01116-2 G12D): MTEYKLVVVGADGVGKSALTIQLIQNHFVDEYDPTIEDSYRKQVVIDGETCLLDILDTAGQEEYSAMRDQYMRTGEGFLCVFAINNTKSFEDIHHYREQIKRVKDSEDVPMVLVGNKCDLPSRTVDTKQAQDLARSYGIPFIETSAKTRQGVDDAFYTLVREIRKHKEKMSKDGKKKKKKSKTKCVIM

Take `CCN1CCC(Oc2nc(N3CCNCC3)c3cc(Cl)c(-c4cccc5sc(N)nc45)c(F)c3n2)CC1` [Example 128, 4-(6-chloro-2-((1-ethylpiperidin-4-yl)oxy)-8-fluoro-4-(piperazin-1-yl)quinazolin-7-yl)benzo[d]thiazol-2-amine]: half-maximal inhibition in experiment [1] (IC50) was put at 1.48 µM. The “Avg 2 h Coupled Exchange IC50” value in experiment [2] was 0.411 µM.
`CN1C[C@H](F)C[C@H]1COc1nc(N2CCNCC2)c2cc(Cl)c(-c3cccc4sc(N)nc34)c(F)c2n1` [Example 49, 4-(6-chloro-8-fluoro-2-(((2S,4R)-4-fluoro-1-methyl-pyrrolidin-2-yl)methoxy)-4-(piperazin-1-yl)quinazolin-7-yl)benzo[d] thiazol-2-amine]: half-maximal inhibition in experiment [1] (IC50) required 0.141 µM. For the same compound, the “Avg 2 h Coupled Exchange IC50” value in experiment [2] turned out to be 0.038 µM.
Taken in the same sequence, the figures for `Nc1nc2c(-c3c(Cl)cc4c(N5CCCNC(=O)C5)nc(OCC56CCCN5CCC6)nc4c3F)ccc(F)c2s1` [Example 12, 4-(7-(2-amino-7-fluorobenzo[d]thiazol-4-yl)-6-chloro-8-fluoro-2-((tetrahydro-1H-pyrrolizin-7a(5H)-yl)methoxy)quinazolin-4-yl)-1,4-diazepan-2-one] were 0.018 µM and 0.014 µM.
For `CC1CNCC=C1c1nc(OC[C@@H]2CCCN2C)nc2c(F)c(-c3cccc4sc(N)nc34)c(Cl)cc12` (single isomer, unassigned) [Example 146], half-maximal inhibition in experiment [1] (IC50) required 4.09 µM. Moreover, the “Avg 2 h Coupled Exchange IC50” value in experiment [2] turned out to be 1.56 µM.
Turning to `CN1CCCC[C@H]1COc1nc(N2CCNCC2)c2cc(Cl)c(-c3cccc4sc(N)nc34)c(F)c2n1` [Example 64, 4-(6-chloro-8-fluoro-2-(((S)-1-methyl-piperidin-2-yl)methoxy)-4-(piperazin-1-yl)quinazolin-7-yl)benzo[d] thiazol-2-amine], half-maximal inhibition in experiment [1] (IC50) was put at 1.19 µM. Further, in experiment [2], the “Avg 2 h Coupled Exchange IC50” value came to 0.446 µM.
The corresponding values for `CC1CNCC=C1c1nc(OC[C@@H]2CCCN2C)nc2c(F)c(-c3cccc4sc(N)nc34)c(Cl)cc12` (single isomer, unassigned) [Example 145] are 2.97 µM and 0.803 µM.
In experiment [1], `CN(C)C1CN(c2nc(N3CCNCC3)c3cc(Cl)c(-c4cccc5sc(N)nc45)c(F)c3n2)C1` [Example 67, 4-(6-chloro-2-(3-(dimethylamino)azetidin-1-yl)-8-fluoro-4-(piperazin-1-yl)quinazolin-7-yl)benzo[d] thiazol-2-amine] had an IC50 of 1.62 µM. The “Avg 2 h Coupled Exchange IC50” value in experiment [2] worked out at 0.67 µM.
For the compound `Nc1nc2c(-c3c(Cl)cc4c(N5CCNCC5)nc(OCC56CCC(CC5)N6)nc4c3F)cccc2s1` [Example 75, 4-(2-(((1s,4s)-7-azabicyclo[2.2.1]heptan-1-yl)methoxy)-6-chloro-8-fluoro-4-(piperazin-1-yl)quinazolin-7-yl)benzo[d] thiazol-2-amine], half-maximal inhibition in experiment [1] (IC50) required 1.85 µM. For the same compound, the “Avg 2 h Coupled Exchange IC50” value in experiment [2] was 0.797 µM.
The corresponding values for `CN1C[C@H](F)C[C@H]1COc1nc2c(F)c(-c3ccc(F)c4sc(N)nc34)c(Cl)cc2c(N2[C@@H]3CC[C@H]2CNC3)c1C#N` [Example 160, 7-(2-amino-7-fluorobenzo[d]thiazol-4-yl)-4-((1R,5S)-3,8-diazabicyclo[3.2.1]octan-8-yl)-6-chloro-8-fluoro-2-(((2S,4R)-4-fluoro-1-methylpyrrolidin-2-yl)methoxy)quinoline-3-carbonitrile] are 0.882 µM and 0.578 µM.
For the compound `CN1CCC[C@H]1COc1nc(N2CCNCC2)c2cc(Cl)c(-c3ccc(C(F)(F)F)c4sc(N)nc34)c(F)c2n1` [Example 131, 4-(6-chloro-8-fluoro-2-(((S)-1-methylpyrrolidin-2-yl)methoxy)-4-(piperazin-1-yl)quinazolin-7-yl)-7-(trifluoromethyl)benzo [d]thiazol-2-amine], the half-inhibitory concentration (IC50) in experiment [1] was 1.4 µM. Further, in experiment [2], the “Avg 2 h Coupled Exchange IC50” value came to 0.735 µM.
Taken in the same sequence, the figures for `Nc1nc2c(-c3c(Cl)cc4c(N5CCNCC5)nc(OCC56CCCN5C(=O)CC6)nc4c3F)cccc2s1` (stereo not shown) [Example 43, 7a-(((7-(2-aminobenzo[d]thiazol-4-yl)-6-chloro-8-fluoro-4-(piperazin-1-yl)quinazolin-2-yl)oxy)methyl)hexahydro-3H-pyrrolizin-3-one] were 3.19 µM and 3.29 µM.
In turn, `CN1CCC[C@H]1COc1nc(N2C3CNCC2COC3)c2cc(Cl)c(-c3cccc4sc(N)nc34)c(F)c2n1` [Example 10, 4-(4-(3-oxa-7,9-diazabicyclo[3.3.1]nonan-9-yl)-6-chloro-8-fluoro-2-(((S)-1-methylpyrrolidin-2-yl)methoxy)quinazolin-7-yl)benzo[d] thiazol-2-amine] displayed an IC50 in experiment [1] of 0.014 µM. Moreover, in experiment [2], the “Avg 2 h Coupled Exchange IC50” value was 0.01 µM.
`Nc1nc2c(-c3c(Cl)cc4c(N5C[C@H]6COC[C@@H](C5)N6)nc(OC[C@@]56CCCN5C[C@H](F)C6)nc4c3F)ccc(F)c2s1` [Example 42, 4-(4-((1R,5S)-3-oxa-7,9-diazabicyclo[3.3.1]nonan-7-yl)-6-chloro-8-fluoro-2-(((2R,7aS)-2-fluorotetrahydro-1H-pyrrolizin-7a(5H)-yl)methoxy)quinazolin-7-yl)-7-fluorobenzo[d] thiazol-2-amine]: the IC50 in experiment [1] came to 0.012 µM. Also, the “Avg 2 h Coupled Exchange IC50” value in experiment [2] came to 0.012 µM.
On to `CCN1CCC(COc2nc(N3CCNCC3)c3cc(Cl)c(-c4cccc5sc(N)nc45)c(F)c3n2)CC1` [Example 63, 4-(6-chloro-2-((1-ethylpiperidin-4-yl)methoxy)-8-fluoro-4-(piperazin-1-yl)quinazolin-7-yl)benzo[d] thiazol-2-amine], for which 0.473 µM corresponded to half-maximal inhibition in experiment [1] (IC50). Moreover, the “Avg 2 h Coupled Exchange IC50” value in experiment [2] was 0.429 µM.
The compound `CN1CCC[C@H]1COc1nc(N2CCNC(=O)C2)c2cc(Cl)c(-c3cccc4sc(N)nc34)c(F)c2n1` [Example 23, 4-(7-(2-aminobenzo[d]thiazol-4-yl)-6-chloro-8-fluoro-2-(((S)-1-methylpyrrolidin-2-yl)methoxy)quinazolin-4-yl)piperazin-2-one] came in with an IC50 in experiment [1] of 0.678 µM. In addition, the “Avg 2 h Coupled Exchange IC50” value in experiment [2] is 0.166 µM.
The compound `CN1CCC[C@H]1COc1nc(N2CCNC(=O)CC2)c2cc(Cl)c(-c3cccc4sc(N)nc34)c(F)c2n1` [Example 24, 1-(7-(2-aminobenzo[d]thiazol-4-yl)-6-chloro-8-fluoro-2-(((S)-1-methylpyrrolidin-2-yl)methoxy)quinazolin-4-yl)-1,4-diazepan-5-one] came in with an IC50 in experiment [1] of 0.158 µM. For the same compound, in experiment [2], the “Avg 2 h Coupled Exchange IC50” value came to 0.172 µM.
As to `Nc1nc2c(-c3c(Cl)cc4c(N5CCNCC5)nc(OC[C@@H]5CC(F)(F)CN5)nc4c3F)cccc2s1` [Example 59, 4-(6-chloro-2-(((S)-4,4-difluoro-pyrrolidin-2-yl)methoxy)-8-fluoro-4-(piperazin-1-yl)quinazolin-7-yl)benzo[d] thiazol-2-amine], the IC50 in experiment [1] came to 0.687 µM. In addition, the “Avg 2 h Coupled Exchange IC50” value in experiment [2] stood at 0.321 µM.
As to `CN1CCC[C@H]1COc1nc(N2CCNC(C(F)(F)F)C2)c2cc(Cl)c(-c3cccc4sc(N)nc34)c(F)c2n1` (stereo partly drawn) [Example 1, 4-(6-Chloro-8-fluoro-2-(((S)-1-methylpyrrolidin-2-yl)methoxy)-4-(3-(trifluoromethyl)piperazin-1-yl)quinazolin-7-yl)benzo[d]thiazol-2-amine], it took 11.3 µM to reach half-maximal inhibition in experiment [1] (IC50). The “Avg 2 h Coupled Exchange IC50” value in experiment [2] stood at 3.655 µM.
In turn, `Nc1nc2c(-c3c(F)cc4c(N5C[C@@H]6CC[C@H]5CN6)nc(OC[C@@]56CCCN5C[C@H](F)C6)nc4c3F)ccc(F)c2s1` [Example 143, 4-(4-((1S,4S)-2,5-diazabicyclo[2.2.2]octan-2-yl)-6,8-difluoro-2-(((2R,7aS)-2-fluorotetrahydro-1H-pyrrolizin-7a(5H)-yl)methoxy)quinazolin-7-yl)-7-fluorobenzo[d]thiazol-2-amine] showed an IC50 in experiment [1] of 0.01 µM. In experiment [2], the “Avg 2 h Coupled Exchange IC50” value is 0.008 µM.
In experiment [1], `CN1CCC[C@H]1COc1nc(N2CCN[C@@H](CC#N)C2)c2cc(Cl)c(-c3cccc4sc(N)nc34)c(F)c2n1` [Example 26, 2-((2S)-4-(7-(2-aminobenzo[d]thiazol-4-yl)-6-chloro-8-fluoro-2-(((S)-1-methylpyrrolidin-2-yl)methoxy)quinazolin-4-yl)piperazin-2-yl)acetonitrile] gave an IC50 of 1.21 µM. In experiment [2], the “Avg 2 h Coupled Exchange IC50” value came out at 0.409 µM.
For the compound `Nc1nc2c(-c3c(F)cc4c(N5[C@@H]6CC[C@H]5CNC6)nc(OC[C@@]56CCCN5C[C@H](F)C6)nc4c3F)ccc(F)c2s1` [Example 142, 4-(4-((1R,5S)-3,8-diazabicyclo[3.2.1]octan-8-yl)-6,8-difluoro-2-(((2R,7aS)-2-fluorotetrahydro-1H-pyrrolizin-7a(5H)-yl)methoxy)quinazolin-7-yl)-7-fluorobenzo[d]thiazol-2-amine], the IC50 in experiment [1] came to 0.004 µM. In addition, in experiment [2], the “Avg 2 h Coupled Exchange IC50” value turned out to be 0.007 µM.
With `Nc1nc2c(-c3c(Cl)cc4c(N5CCNCC5)nc(OCC56CCCN5CC(F)(F)C6)nc4c3F)cccc2s1` (stereo not shown) [Example 54, 4-(6-chloro-2-((2,2-difluorotetra-hydro-1H-pyrrolizin-7a(5H)-yl)methoxy)-8-fluoro-4-(piperazin-1-yl)quinazolin-7-yl)benzo[d] thiazol-2-amine], the IC50 in experiment [1] worked out at 0.087 µM. Further, the “Avg 2 h Coupled Exchange IC50” value in experiment [2] stood at 0.079 µM.
For `CN1CCC[C@H]1COc1nc(N2CCN[C@@H](CO)C2)c2cc(Cl)c(-c3cccc4sc(N)nc34)c(F)c2n1` [Example 25, ((2R)-4-(7-(2-aminobenzo[d]thiazol-4-yl)-6-chloro-8-fluoro-2-(((S)-1-methylpyrrolidin-2-yl)methoxy)quinazolin-4-yl)piperazin-2-yl)methanol], half-maximal inhibition in experiment [1] (IC50) was put at 0.239 µM. In addition, the “Avg 2 h Coupled Exchange IC50” value in experiment [2] was found to be 0.181 µM.

For the origin of these results see US20250059179A1, “Heterocyclic Compounds and Methods of Use” (AMGEN INC., priority 2021, published 2025).
